From patent publication EP4342890A1, “PLATFORM AND SCAFFOLD FOR FAP TARGETING AGENTS” (Erasmus University Rotterdam Medical Center, priority 2022, dated 2024)

Columns and labels:
FAP [1] = target: T1, FAP (Homo sapiens, UniProt Q12884); test: Competitive binding assay against [111In]In-FAPI-46 in HT-1080.hFAP cells; design: expressed in transfected cells; host or cells: HT-1080.hFAP cells; conditions: competition with [111In]In-FAPI-46 in HT-1080.hFAP cells, 37 °C, 1 h; unit inferred
T1 sequence (Q12884 1-760): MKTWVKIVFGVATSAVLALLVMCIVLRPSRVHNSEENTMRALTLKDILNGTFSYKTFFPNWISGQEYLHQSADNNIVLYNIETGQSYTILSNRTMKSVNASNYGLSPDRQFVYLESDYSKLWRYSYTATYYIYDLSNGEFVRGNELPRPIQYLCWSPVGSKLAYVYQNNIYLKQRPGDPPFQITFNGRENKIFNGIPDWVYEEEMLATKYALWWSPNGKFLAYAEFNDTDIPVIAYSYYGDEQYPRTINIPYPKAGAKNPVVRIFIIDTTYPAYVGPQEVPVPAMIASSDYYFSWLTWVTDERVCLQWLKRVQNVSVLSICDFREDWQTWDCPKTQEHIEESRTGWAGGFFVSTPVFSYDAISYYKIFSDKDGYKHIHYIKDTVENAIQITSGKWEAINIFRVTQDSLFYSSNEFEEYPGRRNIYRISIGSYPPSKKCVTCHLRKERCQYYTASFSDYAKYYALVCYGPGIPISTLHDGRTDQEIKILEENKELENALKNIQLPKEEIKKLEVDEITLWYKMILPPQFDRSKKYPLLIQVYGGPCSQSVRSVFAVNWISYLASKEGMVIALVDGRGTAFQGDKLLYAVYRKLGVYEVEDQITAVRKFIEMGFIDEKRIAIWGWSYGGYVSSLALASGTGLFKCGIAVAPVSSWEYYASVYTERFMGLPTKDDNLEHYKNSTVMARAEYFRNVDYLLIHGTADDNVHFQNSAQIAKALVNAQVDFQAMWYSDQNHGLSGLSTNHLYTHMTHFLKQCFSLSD
Procedure: The U-87 MG glioblastoma was cultured at 37 °C and 5% CO2 in Dulbecco's Modified Eagle Medium (DMEM) supplemented with 10 % (v/v) fetal calf serum. HT-1080.hFAP cells were kept in culture in DMEM medium supplemented with fetal bovine serum (10%, FBS) and antibiotic antimycotic (1%, AA) at 37 °C and 5% CO2. For passaging, cells were detached using Trypsin-EDTA 0.05% when reaching 90% confluence and re-seeded at a dilution of 1:4.
Competition binding experiments were conducted by incubation of the [^111In]In-FAPI-46 radioligand with increasing concentrations of eFAP compound in HT-1080.hFAP cells at 37 °C for 1 h. Cells were then washed three times with binding buffer and lysed. The cell-associated radioactivity was measured in a γ-counter. The IC50 values were calculated by fitting the data by non-linear regression using GraphPad Prism.

murine FAP = target: T2, murine FAP (Mus musculus, UniProt P97321); test: In vitro inhibition assay on mouse FAP (Z-GP-AMC substrate); type: biochemical; conditions: enzymatic assay; 20 µM Z-GP-AMC, 20 nM FAP; unit inferred
T2 sequence (P97321 1-761): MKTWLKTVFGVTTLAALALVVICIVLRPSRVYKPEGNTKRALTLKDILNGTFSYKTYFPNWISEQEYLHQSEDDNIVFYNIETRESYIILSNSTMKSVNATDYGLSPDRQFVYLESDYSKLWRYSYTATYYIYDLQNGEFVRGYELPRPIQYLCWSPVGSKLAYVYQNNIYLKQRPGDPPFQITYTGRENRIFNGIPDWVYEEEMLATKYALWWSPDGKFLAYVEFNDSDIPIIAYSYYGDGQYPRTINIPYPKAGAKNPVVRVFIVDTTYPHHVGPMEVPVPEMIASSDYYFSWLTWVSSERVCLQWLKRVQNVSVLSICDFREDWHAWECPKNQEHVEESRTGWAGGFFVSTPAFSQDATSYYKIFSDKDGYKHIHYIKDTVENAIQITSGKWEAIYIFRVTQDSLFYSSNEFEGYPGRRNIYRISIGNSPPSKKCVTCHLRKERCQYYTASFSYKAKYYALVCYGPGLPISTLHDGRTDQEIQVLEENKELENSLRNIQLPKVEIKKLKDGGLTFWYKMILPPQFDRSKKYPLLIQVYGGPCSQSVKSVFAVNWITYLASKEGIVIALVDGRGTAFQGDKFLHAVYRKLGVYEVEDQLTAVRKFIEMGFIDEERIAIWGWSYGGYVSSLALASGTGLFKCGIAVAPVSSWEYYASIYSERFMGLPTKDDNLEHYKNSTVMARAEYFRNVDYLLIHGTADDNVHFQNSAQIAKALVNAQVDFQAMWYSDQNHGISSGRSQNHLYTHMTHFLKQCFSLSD
Procedure: (§1) Enzymatic activity of human FAP (hFAP) and mouse FAP (mFAP) on the Z-GP-AMC substrate was measured at room temperature on a Hidex microplate reader by monitoring the fluorescence at an excitation wavelength of 360 nm and an emission wavelength of 465 nm. The reaction mixture contained 20 µM substrate, 20 nM FAP, assay buffer (50 mM Tris, 100 mM NaCl, 1 mM EDTA, pH 7.4) and tested compound (serial dilution from 10^-6 to 10^-12) in a total volume of 50 µL.

FAP [2] = target: T1, FAP; test: In vitro inhibition assay on human FAP (Z-GP-AMC substrate); type: biochemical; conditions: enzymatic assay; 20 µM Z-GP-AMC, 20 nM FAP; unit inferred
Procedure: as §1

CN(CCCN1CCN(C(=O)CN2CCN(CC(=O)O)CCN(CC(=O)O)CCN(CC(=O)O)CC2)CC1)c1ccc2nccc(C(=O)NCC(=O)N3CC(F)(F)C[C@H]3C#N)c2c1 [FAPI-46, reference compound]
IC50 (FAP [1]): 1.6 ± 0.3 nM | IC50 (murine FAP): 15 ± 2 nM | IC50 (FAP [2]): 2.7 ± 1.7 nM
